Holding throughout (format): cell-based
The subject of assay [1] is Staphylococcus aureus, USA 300. Briefly: Minimal inhibitory concentration assay. The conditions noted are these: USA300, read-out: Minimal Inhibitory Concentrations S. aureus USA 300. An outline of the steps: (§1)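 MIC is the lowest concentration stopping visible growth after overnight aerobic culture at 37 °C, per CLSI microbroth dilution (about 10^5 cfu/mL; two-fold series, top final 200 μM). ClpP-inactivated S. aureus USA 300 tested alongside parent strain to probe ClpP-mediated killing.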

The subject of assay [2] is Staphylococcus aureus, USA 300 wherein ClpP is inactivated. Briefly: Minimal inhibitory concentration assay. A digest of the protocol: as §1
The test system of assay [3] is Streptococcus pyogenes, ATCC 700294. Briefly: Minimal inhibitory concentration assay (microbroth dilution). An outline of the steps:
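Plates with two-fold compound dilution series in broth were incubated overnight, aerobically, at 37° C, following CLSI microdilution guidance.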
For orientation: Broth dilution looks for growth in wells or tubes with falling amounts of substance.

The mark [4] stands for this setting: Streptococcus pyogenes, ATCC700294, read-out: Minimal Inhibitory Concentrations S. pyogenes ATCC 700294.
The mark [5] stands for this setting: Streptococcus pyogenes, ATCC700294; read-out: Minimal Inhibitory Concentrations S. pyogenes ATCC 700294.

≈ marks a conversion by molar mass, not a printed value. Where two headings read alike, the source gives them in different places. *1 amine or outer side, *2 acyl side, *3 side chain or, on linkers, in order; H or OH if unused. Where a SMILES comes first, the peptide text is derived from it. Bridges are numbered along the chain shown (N, C = ends). [ ]: non-standard residue; d: D form. The star is where a group is joined. Piperazine(2S-CO,4-Me) = CN1CCN[C@H](C(=O)O)C1; Phe(3,5-F2) = N[C@@H](Cc1cc(F)cc(F)c1)C(=O)O; Morpholine(3S-CO) = O=C(O)[C@@H]1COCCN1; NH(4-Cl-2-F-phenyl) = Fc1cc(Cl)ccc1N*; Pro(4R-Me) = C[C@H]1CN[C@H](C(=O)O)C1; Hyp = O=C(O)[C@@H]1C[C@@H](O)CN1; aThr = C[C@H](O)[C@H](N)C(=O)O; Pip = O=C(O)[C@@H]1CCCCN1; X2 = CN1CCc2ccc(N*)cc21; X1 = N#Cc1cc(N*)ccc1F; CO = O=C([*:1])[*:2]

Regarding `C[C@@H]1C[C@H]2C(=O)O[C@@H](C)[C@H](NC(=O)[C@H](Cc3cc(F)cc(F)c3)NC(=O)Nc3ccc4c(c3)N(C)CC4)C(=O)N3CCC[C@H]3C(=O)N3CCCC[C@H]3C(=O)N[C@@H](C)C(=O)N2C1` [Compound 321, (S)-3-(3,5-difluorophenyl)-2-(3-(1-methylindolin-6-yl)ureido)-N-((2R,6S,8aS,14aS,20S,21S,23aS)-2,6,21-trimethyl-5,8,14,19,23-pentaoxooctadecahydro-1H,5H,14H,19H-pyrido[2,1-i]dipyrrolo[2,1-c:2′,1′-l][1]oxa[4,7,10,13]tetraazacyclo-hexadecin-20-yl)propanamide] ({X2-CO}-[Phe(3,5-F2)][aThr]P[Pip]A[Pro(4R-Me)]; ester 2-C), the MIC is less than 0.098 µM in assay [1] and 0.313 µM (≈ 0.266 µg/mL) in assay [3] (setting [4]). For the same molecule, the “Minimal Inhibitory Concentrations S. aureus USA 300 ΔClpP” value in assay [2] is less than 0.098 µM.
The like results for `Cc1ccc(NC(=O)N[C@@H](Cc2cc(F)cc(F)c2)C(=O)N[C@H]2COC(=O)[C@@H]3C[C@@H](C)CN3C(=O)[C@H](C)NC(=O)C3CCCCN3C(=O)[C@@H]3C[C@@H](O)CN3C2=O)cc1` (stereo partly drawn) [Compound 323, (S)-3-(3,5-difluorophenyl)-N-((2R,6S,8aR,14aS,16R,20S,23aS)-16-hydroxy-2,6-dimethyl-5,8,14,19,23-pentaoxooctadecahydro-1H,5H,14H,19H-pyrido[2,1-i]dipyrrolo[2,1-c:2′,1′-l][1]oxa[4,7,10,13]tetraazacyclohexadecin-20-yl)-2-(3-(p-tolyl)ureido)propanamide] were, in that order, 1.25 µM (≈ 1.01 µg/mL), 0.156 µM (≈ 0.126 µg/mL) and more than 20 µM.
Take `C[C@@H]1C[C@H]2C(=O)O[C@@H](C)[C@H](NC(=O)[C@H](Cc3cc(F)cc(F)c3)NC(=O)Nc3ccc(F)c(C#N)c3)C(=O)N3CCC[C@H]3C(=O)N3CCCC[C@H]3C(=O)N[C@@H](C)C(=O)N2C1` [Compound 324, (S)-2-(3-(3-cyano-4-fluorophenyl)ureido)-3-(3,5-difluorophenyl)-N-((2R,6S,8aS,14aS,20S,21S,23aS)-2,6,21-trimethyl-5,8,14,19,23-pentaoxooctadecahydro-1H,5H,14H,19H-pyrido[2,1-i]dipyrrolo[2,1-c:2′,1′-l][1]oxa[4,7,10,13]tetraazacyclo-hexadecin-20-yl)propanamide] ({X1-CO}-[Phe(3,5-F2)][aThr]P[Pip]A[Pro(4R-Me)]; ester 2-C): the MIC is 0.625 µM (≈ 0.523 µg/mL) in assay [1] and 1.25 µM (≈ 1.05 µg/mL) in assay [3] (setting [5]). Besides, in assay [2], the “Minimal Inhibitory Concentrations S. aureus USA 300 ΔClpP” value was more than 20 µM.
The like results for `C[C@@H]1C[C@H]2C(=O)OC[C@H](NC(=O)[C@H](Cc3cc(F)cc(F)c3)NC(=O)Nc3ccc4c(c3)OCO4)C(=O)N3C[C@H](O)C[C@H]3C(=O)N3CCCCC3C(=O)N[C@@H](C)C(=O)N2C1` (stereo partly drawn) [Compound 325, (S)-2-(3-(benzo[d][1,3]dioxol-5-yl)ureido)-3-(3,5-difluorophenyl)-N-((2R,6S,8aR,14aS,16R,20S,23aS)-16-hydroxy-2,6-dimethyl-5,8,14,19,23-pentaoxooctadecahydro-1H,5H,14H,19H-pyrido[2,1-i]dipyrrolo[2,1-c:2′,1′-l][1]oxa[4,7,10,13]tetraazacyclo-hexadecin-20-yl)propanamide] were, in that order, 2.5 µM (≈ 2.1 µg/mL), 0.156 µM (≈ 0.131 µg/mL) and more than 20 µM.
In the same order, the values of `C[C@@H]1C[C@H]2C(=O)O[C@@H](C)[C@H](NC(=O)[C@H](Cc3cc(F)cc(F)c3)NC(=O)Nc3ccc(F)c(C#N)c3)C(=O)N3C[C@H](O)C[C@H]3C(=O)N3CCOC[C@H]3C(=O)N[C@@H](C)C(=O)N2C1` [Compound 326, (S)-2-(3-(3-cyano-4-fluorophenyl)ureido)-3-(3,5-difluorophenyl)-N-((6aS,8R,12S,13S,15aS,17R,21S,23aS)-8-hydroxy-13,17,21-trimethyl-6,11,15,20,23-pentaoxooctadecahydro-6H,11H,15H-[1,4]oxazino[3,4-i]dipyrrolo[2,1-c:2′,1′-l][1]oxa[4,7,10,13]tetraazacyclo-hexadecin-12-yl)propanamide] ({X1-CO}-[Phe(3,5-F2)][aThr][Hyp][Morpholine(3S-CO)]A[Pro(4R-Me)]; ester 2-C) are 20 µM (≈ 17.1 µg/mL), 1.25 µM (≈ 1.07 µg/mL) and more than 20 µM.
The like results for `C[C@@H]1C[C@H]2C(=O)O[C@@H](C)[C@H](NC(=O)[C@H](Cc3cc(F)cc(F)c3)NC(=O)Nc3ccc(Cl)cc3F)C(=O)N3C[C@H](O)C[C@H]3C(=O)N3CCCC[C@H]3C(=O)N[C@@H](C)C(=O)N2C1` [Compound 329, (S)-2-(3-(4-chloro-2-fluorophenyl)ureido)-3-(3,5-difluorophenyl)-N-((2R,6S,8aS,14aS,16R,20S,21S,23aS)-16-hydroxy-2,6,21-trimethyl-5,8,14,19,23-pentaoxooctadecahydro-1H,5H,14H,19H-pyrido[2,1-i]dipyrrolo[2,1-c:2′,1′-l][1]oxa[4,7,10,13]tetraazacyclo-hexadecin-20-yl)propanamide] ({NH(4-Cl-2-F-phenyl)-CO}-[Phe(3,5-F2)][aThr][Hyp][Pip]A[Pro(4R-Me)]; ester 2-C) were, in that order, 0.039 µM (≈ 0.0336 µg/mL), 0.078 µM (≈ 0.0673 µg/mL) and 50 µM.
Consider `C[C@@H]1C[C@H]2C(=O)OC[C@H](NC(=O)[C@H](Cc3cc(F)cc(F)c3)NC(=O)Nc3ccc(Cl)cc3F)C(=O)N3CCC[C@H]3C(=O)N3CCN(C)C[C@H]3C(=O)N[C@@H](C)C(=O)N2C1` [Compound 330, (S)-2-(3-(4-chloro-2-fluorophenyl)ureido)-3-(3,5-difluorophenyl)-N-((6aS,12S,15aS,17R,21S,23aS)-2,17,21-trimethyl-6,11,15,20,23-pentaoxooctadecahydro-2H,6H,11H,15H-pyrazino[2,1-i]dipyrrolo[2,1-c:2′,1′-l][1]oxa[4,7,10,13]tetraazacyclohexadecin-12-yl)propanamide] ({NH(4-Cl-2-F-phenyl)-CO}-[Phe(3,5-F2)]SP[Piperazine(2S-CO,4-Me)]A[Pro(4R-Me)]; ester 2-C), for which the MIC in assay [1] amounted to 0.156 µM (≈ 0.132 µg/mL); in assay [3] (setting [5]), 0.078 µM (≈ 0.0661 µg/mL). Also, the “Minimal Inhibitory Concentrations S. aureus USA 300 ΔClpP” value in assay [2] was more than 20 µM.

These data come from US10457707B2, “Substituted urea depsipeptide analogs as activators of the CLPP endopeptidase” (priority 2015, dated 2019).
